Test results reported in paper PMC10175918 (Communications Biology, 2023).
Like-named read-outs stand apart in the source and are kept apart here.

Assays:
Experiment in all cases: TGFα-shedding assay-based GPCR screening with chimeric Gα subunit proteins
Type in all cases: cell-based
[1] = molecular target: T1, 348 GPCRs (Homo sapiens, UniProt Q9NYW1); conditions: 10µM, Favipiravir 100μM
T1 construct: expressed in transfected cells; host or cells: HEK293A
T1 sequence (Q9NYW1 1-312): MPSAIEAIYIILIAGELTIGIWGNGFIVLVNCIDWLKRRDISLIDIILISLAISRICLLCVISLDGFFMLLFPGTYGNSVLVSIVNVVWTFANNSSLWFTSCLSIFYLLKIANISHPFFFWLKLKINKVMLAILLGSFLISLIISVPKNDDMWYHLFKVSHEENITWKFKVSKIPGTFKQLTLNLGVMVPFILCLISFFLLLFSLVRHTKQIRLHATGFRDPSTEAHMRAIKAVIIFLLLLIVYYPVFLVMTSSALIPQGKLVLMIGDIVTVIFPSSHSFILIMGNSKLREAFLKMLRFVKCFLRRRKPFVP

[2] = molecular target: T2, 348 GPCRs (Homo sapiens, UniProt P25025)
T2 sequence (P25025 1-360): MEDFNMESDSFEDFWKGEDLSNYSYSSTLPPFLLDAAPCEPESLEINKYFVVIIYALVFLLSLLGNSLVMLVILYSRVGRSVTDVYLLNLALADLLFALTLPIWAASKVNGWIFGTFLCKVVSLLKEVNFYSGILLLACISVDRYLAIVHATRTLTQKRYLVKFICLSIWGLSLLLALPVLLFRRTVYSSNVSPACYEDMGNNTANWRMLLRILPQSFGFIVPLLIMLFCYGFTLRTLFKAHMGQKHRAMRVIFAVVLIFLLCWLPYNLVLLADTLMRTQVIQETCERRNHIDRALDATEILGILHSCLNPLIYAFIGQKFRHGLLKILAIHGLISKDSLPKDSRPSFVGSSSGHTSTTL

[3] = molecular target: T3, 348 GPCRs (Homo sapiens, UniProt Q9BZJ8)
T3 construct: expressed in transfected cells; host or cells: HEK293A
T3 sequence (Q9BZJ8 whole entry): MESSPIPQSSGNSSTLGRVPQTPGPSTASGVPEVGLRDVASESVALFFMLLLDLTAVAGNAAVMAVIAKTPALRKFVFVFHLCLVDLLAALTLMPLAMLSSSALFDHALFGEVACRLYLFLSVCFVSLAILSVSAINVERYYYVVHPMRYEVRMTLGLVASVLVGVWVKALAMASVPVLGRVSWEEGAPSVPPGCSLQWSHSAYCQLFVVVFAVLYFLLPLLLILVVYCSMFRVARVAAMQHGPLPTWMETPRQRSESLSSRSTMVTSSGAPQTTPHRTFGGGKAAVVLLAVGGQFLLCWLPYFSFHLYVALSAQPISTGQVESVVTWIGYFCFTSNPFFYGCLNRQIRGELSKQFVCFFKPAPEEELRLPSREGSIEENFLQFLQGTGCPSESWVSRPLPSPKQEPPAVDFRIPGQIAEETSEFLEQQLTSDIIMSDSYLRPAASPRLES

[4] = molecular target: T4, 348 GPCRs (Homo sapiens, UniProt O60755); conditions: 10µM, Favipiravir 100μM
T4 construct: expressed in transfected cells; host or cells: HEK293A
T4 sequence (O60755 1-368): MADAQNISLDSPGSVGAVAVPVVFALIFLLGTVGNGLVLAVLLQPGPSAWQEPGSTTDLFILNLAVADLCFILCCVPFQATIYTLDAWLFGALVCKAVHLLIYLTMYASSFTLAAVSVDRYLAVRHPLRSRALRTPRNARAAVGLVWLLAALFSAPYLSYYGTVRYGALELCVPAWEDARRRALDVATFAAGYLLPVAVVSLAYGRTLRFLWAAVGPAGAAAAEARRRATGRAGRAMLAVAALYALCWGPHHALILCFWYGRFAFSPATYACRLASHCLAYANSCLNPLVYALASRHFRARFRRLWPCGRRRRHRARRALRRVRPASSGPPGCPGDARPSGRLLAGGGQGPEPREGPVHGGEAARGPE

[5] = molecular target: T5, 348 GPCRs (Homo sapiens, UniProt Q96RI0); conditions: 10µM, Favipiravir 100μM
T5 construct: expressed in transfected cells; host or cells: HEK293A
T5 sequence (Q96RI0 18-385): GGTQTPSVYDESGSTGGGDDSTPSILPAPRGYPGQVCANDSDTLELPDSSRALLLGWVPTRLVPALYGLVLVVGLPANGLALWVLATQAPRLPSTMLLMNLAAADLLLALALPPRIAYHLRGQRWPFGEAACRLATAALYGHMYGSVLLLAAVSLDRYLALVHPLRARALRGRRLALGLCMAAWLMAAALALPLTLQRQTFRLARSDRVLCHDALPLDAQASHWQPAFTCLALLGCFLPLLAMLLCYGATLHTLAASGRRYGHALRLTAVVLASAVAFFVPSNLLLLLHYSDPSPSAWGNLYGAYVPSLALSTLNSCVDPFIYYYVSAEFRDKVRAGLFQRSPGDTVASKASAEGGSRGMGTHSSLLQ

[6] = molecular target: 348 GPCRs (Homo sapiens, UniProt Q9H228); conditions: 10µM, Favipiravir 100μM
Chain of 348 GPCRs (Homo sapiens, UniProt Q9H228) (Q9H228 whole entry): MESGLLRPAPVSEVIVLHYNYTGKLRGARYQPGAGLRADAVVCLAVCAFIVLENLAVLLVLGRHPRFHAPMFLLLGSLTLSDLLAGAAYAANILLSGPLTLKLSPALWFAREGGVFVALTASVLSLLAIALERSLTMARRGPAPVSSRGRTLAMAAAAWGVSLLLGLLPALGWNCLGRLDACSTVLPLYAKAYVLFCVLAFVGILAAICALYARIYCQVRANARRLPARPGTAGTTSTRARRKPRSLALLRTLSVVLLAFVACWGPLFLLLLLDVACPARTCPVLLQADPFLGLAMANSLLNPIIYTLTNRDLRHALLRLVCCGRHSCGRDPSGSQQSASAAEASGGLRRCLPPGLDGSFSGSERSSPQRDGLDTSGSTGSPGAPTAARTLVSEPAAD

[7] = molecular target: T6, 348 GPCRs (Homo sapiens, UniProt Q86SM8); conditions: 10µM, Favipiravir 100μM
T6 construct: expressed in transfected cells; host or cells: HEK293A
T6 sequence (Q86SM8 whole entry): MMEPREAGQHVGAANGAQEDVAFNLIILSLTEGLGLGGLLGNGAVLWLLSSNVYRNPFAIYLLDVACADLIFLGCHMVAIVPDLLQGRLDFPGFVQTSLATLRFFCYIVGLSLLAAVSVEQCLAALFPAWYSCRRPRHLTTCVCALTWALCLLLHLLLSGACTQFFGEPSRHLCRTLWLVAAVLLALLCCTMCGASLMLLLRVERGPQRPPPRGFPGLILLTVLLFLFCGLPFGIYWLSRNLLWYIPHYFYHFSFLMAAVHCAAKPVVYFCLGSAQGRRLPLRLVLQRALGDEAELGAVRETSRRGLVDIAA

[8] = molecular target: T7, 348 GPCRs (Homo sapiens, UniProt P29274); conditions: ADORA2A (adenosine A2a receptor); 10µM, Favipiravir 100μM
T7 construct: expressed in transfected cells; host or cells: HEK293A
T7 sequence (P29274 whole entry): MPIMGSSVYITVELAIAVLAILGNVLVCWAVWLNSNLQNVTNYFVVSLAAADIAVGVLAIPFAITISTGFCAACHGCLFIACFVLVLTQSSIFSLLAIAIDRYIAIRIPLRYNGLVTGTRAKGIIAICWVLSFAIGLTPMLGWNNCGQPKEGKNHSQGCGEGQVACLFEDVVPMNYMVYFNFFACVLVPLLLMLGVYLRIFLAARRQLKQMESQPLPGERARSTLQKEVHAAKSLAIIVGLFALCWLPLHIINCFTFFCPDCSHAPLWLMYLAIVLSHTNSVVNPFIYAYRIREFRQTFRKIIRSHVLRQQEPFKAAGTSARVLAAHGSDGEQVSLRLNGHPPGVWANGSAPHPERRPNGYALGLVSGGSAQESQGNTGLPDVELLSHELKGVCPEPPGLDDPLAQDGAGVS

[9] = molecular target: T8, 348 GPCRs (Homo sapiens, UniProt P25024)
T8 construct: expressed in transfected cells; host or cells: HEK293A
T8 sequence (P25024 1-350): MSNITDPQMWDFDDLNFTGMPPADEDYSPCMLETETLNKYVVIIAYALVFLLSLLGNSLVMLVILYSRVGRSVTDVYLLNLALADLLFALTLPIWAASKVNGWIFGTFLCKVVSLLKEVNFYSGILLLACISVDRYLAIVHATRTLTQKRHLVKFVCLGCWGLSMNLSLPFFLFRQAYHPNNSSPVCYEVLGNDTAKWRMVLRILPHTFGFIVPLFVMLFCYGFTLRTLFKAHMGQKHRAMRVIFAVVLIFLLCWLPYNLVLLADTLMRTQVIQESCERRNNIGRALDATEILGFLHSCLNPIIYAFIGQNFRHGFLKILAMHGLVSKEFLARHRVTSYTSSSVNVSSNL

[10] = TAS2R9 (taste receptor, type 2, member 9), read-out: % GPCR activation compared to TPA
[11] = GPCR CXCR2 (C-X-C motif chemokine receptor 2), read-out: % GPCR activation compared to TPA
[12] = GPCR GPR61 (G protein-coupled receptor 61), read-out: % GPCR activation compared to TPA
[13] = GALR3 (galanin receptor 3), read-out: % GPCR activation compared to TPA
[14] = F2RL3 (coagulation factor II (thrombin) receptor-like 3), read-out: % GPCR activation compared to TPA
[15] = S1PR5 (sphingosine-1-phosphate receptor 5), read-out: % GPCR activation compared to TPA
[16] = MRGE (MAS-related GPR, member E), read-out: % GPCR activation compared to TPA
[17] = MRGPRE (MAS-related GPR, member E), read-out: % GPCR activation compared to TPA
[18] = GPCR CXCR1 (chemokine (C-X-C motif) receptor 1), read-out: % GPCR activation compared to TPA
[19] = read-out: % GPCR activation compared to TPA, TAS2R9 (taste receptor, type 2, member 9)
[20] = read-out: % GPCR activation compared to TPA, GPCR CXCR2 (C-X-C motif chemokine receptor 2)
[21] = read-out: % GPCR activation compared to TPA, GPCR GPR61 (G protein-coupled receptor 61)
[22] = read-out: % GPCR activation compared to TPA, GALR3 (galanin receptor 3)
[23] = read-out: % GPCR activation compared to TPA, F2RL3 (coagulation factor II (thrombin) receptor-like 3)
[24] = read-out: % GPCR activation compared to TPA, S1PR5 (sphingosine-1-phosphate receptor 5)
[25] = read-out: % GPCR activation compared to TPA, MRGE (MAS-related GPR, member E)
[26] = read-out: % GPCR activation compared to TPA, MRGPRE (MAS-related GPR, member E)
[27] = read-out: % GPCR activation compared to TPA, GPCR CXCR1 (chemokine (C-X-C motif) receptor 1)

activation at 10 µM [1, 10] | activation at 10 µM [2, 11] | activation at 10 µM [3, 12] | activation at 100 µM [4, 13] | activation at 10 µM [5, 14] | activation at 10 µM [6, 15] | activation at 100 µM [7, 16] | activation at 100 µM [7, 17] | % GPCR activation compared to TPA [8] | activation at 10 µM [9, 18] | Structure (SMILES) | activation at 10 µM [1, 19] | activation at 10 µM [2, 20] | activation at 10 µM [3, 21] | activation at 100 µM [4, 22] | activation at 10 µM [5, 23] | activation at 10 µM [6, 24] | activation at 100 µM [7, 25] | activation at 100 µM [7, 26] | activation at 10 µM [9, 27] | other results
2.37% | – | – | 3.96% | -2.75% | 1.49% | -2.09% | -1.34% | 2.3424% | – | NC(=O)c1nc(F)cnc1O [favipiravir, 6-fluoro-3-hydroxy-2-pyrazinecarboxamide] | – | – | – | – | – | – | – | – | – | activation at 100 µM ([2]; GPCR CXCR2 (C-X-C motif chemokine receptor 2), 100μM, read-out: % GPCR activation compared to TPA): -0.272%; activation at 100 µM ([3]; GPCR GPR61 (G protein-coupled receptor 61), 100μM, read-out: % GPCR activation compared to TPA): -3.47%; activation at 100 µM ([9]; GPCR CXCR1 (chemokine (C-X-C motif) receptor 1), 100μM, read-out: % GPCR activation compared to TPA): -1.26%
0.0718% | 0.926% | -0.396% | 0.404% | 2.35% | -0.945% | -1.17% | -1.32% | -1.952% | -2.06% | CC(C)C(=O)OC[C@H]1O[C@@H](n2ccc(NO)nc2=O)[C@H](O)[C@@H]1O [molnupiravir] | – | – | – | – | – | – | – | – | – | –

The remaining lines, values behind:

Structure (SMILES) | activation at 10 µM [1, 10] | activation at 10 µM [2, 11] | activation at 10 µM [3, 12] | activation at 100 µM [4, 13] | activation at 10 µM [5, 14] | activation at 10 µM [6, 15] | activation at 100 µM [7, 16] | activation at 100 µM [7, 17] | % GPCR activation compared to TPA [8] | activation at 10 µM [9, 18] | activation at 10 µM [1, 19] | activation at 10 µM [2, 20] | activation at 10 µM [3, 21] | activation at 100 µM [4, 22] | activation at 10 µM [5, 23] | activation at 10 µM [6, 24] | activation at 100 µM [7, 25] | activation at 100 µM [7, 26] | activation at 10 µM [9, 27] | other results
N#C[C@@]1(c2ccc3c(N)ncnn23)O[C@H](CO)[C@@H](O)[C@H]1O [GS441524] | 0.686% | 0.398% | -3.94% | 2.25% | 0.403% | -0.465% | -0.92% | -0.879% | 1.631% | -1.09% | – | – | – | – | – | – | – | – | – | –
CCC(CC)COC(=O)[C@H](C)N[P@](=O)(OC[C@H]1O[C@@](C#N)(c2ccc3c(N)ncnn23)[C@H](O)[C@@H]1O)Oc1ccccc1 [remdesivir] | – | – | – | – | – | – | – | – | 3.955% | – | 1.69% | 2.41% | -3.23% | 3.03% | -0.777% | -1.2% | -2.75% | -1.08% | -0.838% | –
CC(C)OC(=O)[C@H](C)N[P@](=O)(OC[C@H]1O[C@@H](n2ccc(=O)[nH]c2=O)[C@](C)(F)[C@@H]1O)Oc1ccccc1 [sofosbuvir] | – | – | – | – | – | – | – | – | -2.149% | – | -0.791% | -1.43% | -0.929% | -0.187% | 1.49% | -0.326% | -1.05% | 0.355% | -0.0928% | –
